{
  "source": "paper PMC11992618",
  "about": "“Development of cyclopeptide inhibitors specifically disrupting FXR–coactivator interaction in the intestine as a novel therapeutic strategy for MASH” (Life Metabolism, 2025)",
  "key": {"[1]": {"target": "T1, human FXR alpha (hFXRα)-LBD / NcoR2 peptide (Homo sapiens, UniProt Q96RI1)", "T1 construct": "100 nmol/L 6*His-hFXRα-LBD and 100 nmol/L biotinylated co-factor peptide", "T1 sequence (Q96RI1 262-486 limits assumed)": "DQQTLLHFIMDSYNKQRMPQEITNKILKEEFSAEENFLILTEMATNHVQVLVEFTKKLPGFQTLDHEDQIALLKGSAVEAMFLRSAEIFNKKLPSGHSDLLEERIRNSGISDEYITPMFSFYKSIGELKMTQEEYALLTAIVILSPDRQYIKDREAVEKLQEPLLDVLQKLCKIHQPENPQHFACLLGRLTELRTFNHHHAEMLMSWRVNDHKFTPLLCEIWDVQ", "assay": "AlphaScreen assay, recruitment of corepressor peptide NcoR2 to His-hFXRα-LBD", "format": "biochemical", "details": "DC646 at 11 μmol/L, Ivermectin 5 μmol/L", "protocol": "An AlphaScreen technology-based assay was performed according to the manufacturer’s instructions with a minor revision. Briefly, the experiment was conducted with compounds at the indicated concentrations, 100 nmol/L 6*His-hFXRα-LBD and 100 nmol/L biotinylated co-factor peptide in the buffer containing 50 mmol/L MOPS, 50 μmol/L CHAPS, 50 mmol/L NaF, and 0.1 mg/mL BSA, pH 7.4. The mixture was incubated with 50 μg/mL nickel acceptor beads and 50 μg/mL streptavidin donor beads in a 384-well plate under green light in the dark at room temperature, before conducting fluorescence measurement with excitation at 680 nm and emission at 550 nm on an Envision microplate analyzer (PE 2102-8340, PerkinElmer Life Sciences)."}, "[2]": {"system": "MCD diet-induced MASH", "assay": "MCD diet short-term MASH model in WT and Fxr-null mice", "format": "in vivo, mouse", "details": "oral 10 mg/kg, 2 weeks", "protocol": "For the short-term MASH model, 8- to 10-week-old male C57BL/6 J or Fxr-null mice were fed with an MCD diet, combined with oral administration of vehicle or DC646 (10 mg/kg) for 2 weeks. The serum, liver, and intestine were collected 2 h after the final dosing.\nThe intestine and liver were frozen in liquid nitrogen and stored at −80°C. RNA was extracted, and complementary DNA was synthesized from 1 μg total RNA. RT-qPCR was performed on a Bio-Rad CFX384 Touch detection system (Bio-Rad). The primer sequences for RT-qPCR are shown in Supplementary Table S5. RNA levels were analyzed by 2-^ΔΔCt, normalized to 18S ribosomal RNA and expressed as fold change relative to the control group.\nHepatic TG and TC, and plasma ALT and AST levels were measured using commercial kits from Nanjing Jiancheng Bioengineering Institute according to the manufacturer’s instructions. To measure hepatic TG contents, liver tissues (~10 mg) were homogenized in 100 μL 1% TritonX-100 and centrifuged at 3000 rpm for 10 min. Supernatants were collected, and 2 μL samples were incubated with 200 μL reaction buffer at 37°C for 10 min. Hepatic TG or TC levels were read at 510 or 500 nm using a microplate reader (Versamax, Molecular Devices) and normalized using the protein concentration. […] The data were acquired using the kinetic mode with an interval of 30 s and 31 total reads at 340 nm using a microplate reader (Versamax, Molecular Devices).\nTissue specimens were fixed in 10% formalin for 12–24 h before being dehydrated and paraffin-embedded. The sections were stained with H&E. The NAS was calculated as a summary score including individual components of steatosis (0–3), lobular inflammation (0–3), and hepatocyte ballooning (0–2) for each liver section by a blinded liver pathologist, and the results were reviewed by a blinded hepatologist according to a previous protocol. […] At least three discontinuous liver sections were evaluated for each mouse."}, "[3]": {"target": "T2, hFXR (Homo sapiens, UniProt Q96RI1)", "T2 construct": "expressed in transfected cells; host or cells: HEK293T", "T2 sequence (Q96RI1 1-472 isoform Q96RI1-2)": "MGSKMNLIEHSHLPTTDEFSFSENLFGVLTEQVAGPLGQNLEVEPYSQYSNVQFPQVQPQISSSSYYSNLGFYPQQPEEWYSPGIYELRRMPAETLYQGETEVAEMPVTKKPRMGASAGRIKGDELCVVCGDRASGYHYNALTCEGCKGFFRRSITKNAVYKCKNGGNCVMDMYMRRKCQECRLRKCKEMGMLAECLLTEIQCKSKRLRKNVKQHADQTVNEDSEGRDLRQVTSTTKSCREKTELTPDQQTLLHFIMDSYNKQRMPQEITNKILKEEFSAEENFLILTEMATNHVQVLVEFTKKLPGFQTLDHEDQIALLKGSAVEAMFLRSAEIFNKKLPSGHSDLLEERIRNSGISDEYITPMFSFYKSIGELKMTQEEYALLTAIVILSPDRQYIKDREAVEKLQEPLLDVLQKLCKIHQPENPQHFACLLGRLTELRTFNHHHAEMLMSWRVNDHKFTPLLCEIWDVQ", "assay": "Luciferase reporter assay, FXR antagonism in transfected HEK293T cells", "format": "cell-based", "details": "100 µmol/L, in the presence of GW4064, HEK293T", "protocol": "HEK293T cells were used for the luciferase report assays and were cultured in DMEM with 10% FBS. The cells were incubated in DMEM media with 1% FBS for 4–6 h and then exposed to the indicated concentrations of compounds for 24 h.\nFor the FXR antagonism experiment, HEK293T cells were seeded in 96-well plates and transfected with pCMV-Script-hFXR and pGL4.11-hSHP-luciferase at a density of 3 × 10^4 cells/well, before culturing overnight. The compounds at indicated concentrations were added to the cells and incubated at 37°C for 1 h, before stimulating with 1% DMSO (negative control) and 5 μmol/L GW4064 (positive control) for 24 h. For the FXR agonism experiment, HEK293T cells were seeded in 96-well plates and transfected with pCMV-Script-hFXR and pGL4.11-hSHP-luciferase at a density of 3 × 10^4 cells/well, before culturing overnight. Then compounds at indicated concentrations were added to the cells and incubated at 37°C for 24 h. […]\nThe luciferase activities and cell viabilities were detected by the FIREFLYGLO Luciferase Assay System and Cell Titer-Blue® Cell Viability Assay according to the manufacturer’s instructions. Firefly luciferase activities and cell viabilities were measured using Spectra Max M5e (Molecular Devices)."}},
  "data": [
    {"compound": "CC(C)C[C@@H]1NC(=O)[C@@H]2CN(CCO2)c2cccc3c2c(cn3[Si](C(C)C)(C(C)C)C(C)C)C[C@H](NS(=O)(=O)C(F)(F)F)C(=O)OCCCCNC(=O)[C@H](CC(C)C)NC(=O)[C@@H]2CN(CCO2)c2cccc3c2c(cn3[Si](C(C)C)(C(C)C)C(C)C)C[C@H](NS(=O)(=O)C(F)(F)F)C(=O)OCCCCNC1=O", "note": "[DC646, N,N'-((1^2R,1^4S,16^2R,16^4S,4R,13R,19R,28R)-13,28-diisobutyl-5,12,15,20,27,30-hexaoxo-2^1,17^1-bis(triisopropylsilyl)-2^1H,17^1H-6,21-dioxa-11,14,26,29-tetraaza-1(4,2),16(2,4)-dimorpholina-2,17(4,3)-diindolacyclotriacontaphane-4,19-diyl)bis(1,1,1-trifluoromethanesulfonamide)]", "values": [
      {"measurement": "Disruption of hFXRα-LBD-NcoR2 interaction induced by Ivermectin", "setting": "[1]", "value": "competitively disrupted"},
      {"measurement": "Decrease in ALT and antisteatotic effect", "setting": "[2]; Fxr-null mice", "value": "abolished"},
      {"measurement": "NAS score, steatosis", "setting": "[2]; WT mice", "value": "effectively reduced steatosis"},
      {"measurement": "mRNA levels of intestinal FXR target genes Shp and Fgf15", "setting": "[2]; WT mice", "value": "significantly downregulated"},
      {"measurement": "Suppression of FXR activation (relative luciferase activity)", "setting": "[3]", "value": "more than 70%"}
    ]}
  ]
}
